Laboratory results as given in article PMC11277489, “Novel Piperazine Derivatives of Vindoline as Anticancer Agents” (International Journal of Molecular Sciences, 2024).

Assays:
[1] = test system: NCI-H322M; assay: NCI60 five-dose screen, Non-small Cell Lung Cancer; type: cell-based; settings: Homo sapiens, Non-small Cell Lung Cancer, five-dose screen, read-out: GI50
[2] = test system: SR; assay: NCI60 one-dose screen (10 μM), Leukemia; type: cell-based; settings: Homo sapiens, 10 μM, Leukemia, read-out: Growth percent rate
[3] = test system: SNB-75; assay: NCI60 five-dose screen, CNS Cancer; type: cell-based; settings: Homo sapiens; SNB-75, CNS Cancer; five-dose screen; read-out: GI50
[4] = test system: OVCAR-4; assay: NCI60 five-dose screen, Ovarian Cancer; type: cell-based; settings: Homo sapiens; OVCAR-4, Ovarian Cancer; five-dose screen; read-out: GI50
[5] = test system: MALME-3M; assay: NCI60 one-dose screen (10 μM), Melanoma; type: cell-based; settings: Homo sapiens; 10 μM; MALME-3M, Melanoma; read-out: Growth percent rate
[6] = test system: A549/ATCC; assay: NCI60 five-dose screen, Non-small Cell Lung Cancer; type: cell-based; settings: Homo sapiens; A549/ATCC, Non-small Cell Lung Cancer; five-dose screen; read-out: GI50
[7] = test system: OVCAR-5; assay: NCI60 one-dose screen (10 μM), Ovarian Cancer; type: cell-based; settings: Homo sapiens; 10 μM; OVCAR-5, Ovarian Cancer; read-out: Growth percent rate
[8] = test system: CCRF-CEM; assay: NCI60 five-dose screen, Leukemia; type: cell-based; settings: Homo sapiens, Leukemia, five-dose screen, read-out: GI50
[9] = test system: KM12; assay: NCI60 five-dose screen, Colon Cancer; type: cell-based; settings: Homo sapiens; KM12, Colon Cancer; five-dose screen; read-out: GI50
[10] = test system: HS 578T; assay: NCI60 five-dose screen, Breast Cancer; type: cell-based; settings: Homo sapiens; HS 578T, Breast Cancer; five-dose screen; read-out: GI50
[11] = test system: OVCAR-3; assay: NCI60 five-dose screen, Ovarian Cancer; type: cell-based; settings: Homo sapiens; OVCAR-3, Ovarian Cancer; five-dose screen; read-out: GI50
[12] = test system: SN12C; assay: NCI60 five-dose screen, Renal Cancer; type: cell-based; settings: Homo sapiens, Renal Cancer, five-dose screen, read-out: GI50
[13] = test system: UACC-62; assay: NCI60 one-dose screen (10 μM), Melanoma; type: cell-based; settings: Homo sapiens; 10 μM; UACC-62, Melanoma; read-out: Growth percent rate
[14] = test system: T-47D; assay: NCI60 one-dose screen (10 μM), Breast Cancer; type: cell-based; settings: Homo sapiens, T47D; 10 μM; T-47D, Breast Cancer; read-out: Growth percent rate
[15] = test system: LOX IMVI; assay: NCI60 one-dose screen (10 μM), Melanoma; type: cell-based, human; settings: Homo sapiens; 10 μM; LOX IMVI, Melanoma; read-out: Growth percent rate
[16] = test system: MALME-3M; assay: NCI60 five-dose screen, Melanoma; type: cell-based; settings: Homo sapiens; MALME-3M, Melanoma; five-dose screen; read-out: GI50
[17] = test system: UO-31; assay: NCI60 one-dose screen (10 μM), Renal Cancer; type: cell-based; settings: Homo sapiens; 10 μM; UO-31, Renal Cancer; read-out: Growth percent rate
[18] = test system: ACHN; assay: NCI60 five-dose screen, Renal Cancer; type: cell-based; settings: Homo sapiens, Renal Cancer, five-dose screen, read-out: GI50
[19] = test system: PC-3; assay: NCI60 five-dose screen, Prostate Cancer; type: cell-based; settings: Homo sapiens; PC-3, Prostate Cancer; five-dose screen; read-out: GI50
[20] = test system: HCC-2998; assay: NCI60 five-dose screen, Colon Cancer; type: cell-based; settings: Homo sapiens; HCC-2998, Colon Cancer; five-dose screen; read-out: GI50
[21] = test system: SNB-19; assay: NCI60 one-dose screen (10 μM), CNS Cancer; type: cell-based; settings: Homo sapiens; 10 μM; SNB-19, CNS Cancer; read-out: Growth percent rate
[22] = test system: SR; assay: NCI60 five-dose screen, Leukemia; type: cell-based; settings: Homo sapiens, Leukemia, five-dose screen, read-out: GI50
[23] = test system: MCF7; assay: NCI60 five-dose screen, Breast Cancer; type: cell-based; settings: Homo sapiens; MCF7, Breast Cancer; five-dose screen; read-out: GI50
[24] = test system: NCI-H460; assay: NCI60 five-dose screen, Non-small Cell Lung Cancer; type: cell-based; settings: Homo sapiens; NCI-H460, Non-small Cell Lung Cancer; five-dose screen; read-out: GI50
[25] = test system: UACC-257; assay: NCI60 five-dose screen, Melanoma; type: cell-based; settings: Homo sapiens; UACC-257, Melanoma; five-dose screen; read-out: GI50
[26] = test system: TK-10; assay: NCI60 one-dose screen (10 μM), Renal Cancer; type: cell-based; settings: Homo sapiens; 10 μM; TK-10, Renal Cancer; read-out: Growth percent rate
[27] = test system: PC-3; assay: NCI60 one-dose screen (10 μM), Prostate Cancer; type: cell-based; settings: Homo sapiens; 10 μM; PC-3, Prostate Cancer; read-out: Growth percent rate
[28] = test system: OVCAR-5; assay: NCI60 five-dose screen, Ovarian Cancer; type: cell-based; settings: Homo sapiens; OVCAR-5, Ovarian Cancer; five-dose screen; read-out: GI50
[29] = test system: NCI-H522; assay: NCI60 five-dose screen, Non-small Cell Lung Cancer; type: cell-based; settings: Homo sapiens; NCI-H522, Non-small Cell Lung Cancer; five-dose screen; read-out: GI50
[30] = test system: TK-10; assay: NCI60 five-dose screen, Renal Cancer; type: cell-based; settings: Homo sapiens; TK-10, Renal Cancer; five-dose screen; read-out: GI50
[31] = test system: MDA-MB-231/ATCC; assay: NCI60 one-dose screen (10 μM), Breast Cancer; type: cell-based, human; settings: Homo sapiens; 10 μM; MDA-MB-231/ATCC, Breast Cancer; read-out: Growth percent rate
[32] = test system: 786–0; assay: NCI60 five-dose screen, Renal Cancer; type: cell-based; settings: Homo sapiens; 786–0, Renal Cancer; five-dose screen; read-out: GI50
[33] = test system: NCI-H226; assay: NCI60 one-dose screen (10 μM), Non-small Cell Lung Cancer; type: cell-based; settings: Homo sapiens; 10 μM; NCI-H226, Non-small Cell Lung Cancer; read-out: Growth percent rate
[34] = test system: UO-31; assay: NCI60 five-dose screen, Renal Cancer; type: cell-based; settings: Homo sapiens; UO-31, Renal Cancer; five-dose screen; read-out: GI50
[35] = test system: SW-620; assay: NCI60 five-dose screen, Colon Cancer; type: cell-based; settings: Homo sapiens; SW-620, Colon Cancer; five-dose screen; read-out: GI50
[36] = test system: SF-295; assay: NCI60 one-dose screen (10 μM), CNS Cancer; type: cell-based; settings: Homo sapiens; 10 μM; SF-295, CNS Cancer; read-out: Growth percent rate
[37] = test system: SK-OV-3; assay: NCI60 one-dose screen (10 μM), Ovarian Cancer; type: cell-based; settings: Homo sapiens; 10 μM; SK-OV-3, Ovarian Cancer; read-out: Growth percent rate
[38] = test system: KM12; assay: NCI60 one-dose screen (10 μM), Colon Cancer; type: cell-based, human; settings: Homo sapiens; 10 μM; KM12, Colon Cancer; read-out: Growth percent rate
[39] = test system: NCI/ADR-RES; assay: NCI60 five-dose screen, Ovarian Cancer; type: cell-based; settings: Homo sapiens, Ovarian Cancer, five-dose screen, read-out: GI50
[40] = test system: MDA-MB-468; assay: NCI60 one-dose screen (10 μM), Breast Cancer; type: cell-based; settings: Homo sapiens; 10 μM; MDA-MB-468, Breast Cancer; read-out: Growth percent rate
[41] = test system: IGROV1; assay: NCI60 five-dose screen, Ovarian Cancer; type: cell-based; settings: Homo sapiens, IGROV-1; IGROV1, Ovarian Cancer; five-dose screen; read-out: GI50
[42] = test system: MOLT-4; assay: NCI60 five-dose screen, Leukemia; type: cell-based; settings: Homo sapiens; MOLT-4, Leukemia; five-dose screen; read-out: GI50
[43] = test system: HOP-92; assay: NCI60 one-dose screen (10 μM), Non-small Cell Lung Cancer; type: cell-based; settings: Homo sapiens; 10 μM; HOP-92, Non-small Cell Lung Cancer; read-out: Growth percent rate
[44] = test system: BT-549; assay: NCI60 one-dose screen (10 μM), Breast Cancer; type: cell-based; settings: Homo sapiens; 10 μM; BT-549, Breast Cancer; read-out: Growth percent rate
[45] = test system: MDA-MB231ATCC; assay: NCI60 five-dose screen, Breast Cancer; type: cell-based; settings: Homo sapiens, MDA-MB-231; MDA-MB231ATCC, Breast Cancer; five-dose screen; read-out: GI50

`CC[C@]12C=CCN3CC[C@@]4(c5ccc(OC)cc5N(C)[C@H]4[C@@](O)(C(=O)OC)[C@@H]1OC(=O)CCC(=O)N1CCN(Cc4ccc(C(F)(F)F)cc4)CC1)[C@@H]32` [Compound 29] showed a GI50 [1] of 14.5 µM, an activity at 10 µM [2] of -48.3% and a GI50 [3] of 15.5 µM. The GI50 [4] was 5.62 µM, the activity at 10 µM [5] was -26.5% and the GI50 [6] was 8.32 µM. For the same compound, the activity at 10 µM [7] was 15.2%, the GI50 [8] was 11.8 µM and the GI50 [9] was 11.8 µM. It also gave a GI50 [10] of 10.2 µM, a GI50 [11] of 6.46 µM and a GI50 [12] of 11.5 µM. The activity at 10 µM [13] was -19.7%, the activity at 10 µM [14] was 24% and the activity at 10 µM [15] was -7.07%. The GI50 [16] was 11.5 µM, the activity at 10 µM [17] was 5.16% and the GI50 [18] was 10.7 µM. For the same compound, the GI50 [19] was 3.39 µM, the GI50 [20] was 12.9 µM and the activity at 10 µM [21] was 20.1%. For the same compound, the GI50 [22] was 13.8 µM, the GI50 [23] was 5.62 µM and the GI50 [24] was 10.5 µM. It also gave a GI50 [25] of 11.5 µM, an activity at 10 µM [26] of 45.7% and an activity at 10 µM [27] of 2.13%. The GI50 [28] was 14.5 µM, the GI50 [29] was 12.6 µM and the GI50 [30] was 12.3 µM. It also gave an activity at 10 µM [31] of 3.02%, a GI50 [32] of 12.3 µM and an activity at 10 µM [33] of 16.7%. It also gave a GI50 [34] of 6.92 µM, a GI50 [35] of 11.5 µM and an activity at 10 µM [36] of 7.76%. It also gave an activity at 10 µM [37] of 12.4%, an activity at 10 µM [38] of 3.78% and a GI50 [39] of 12.3 µM. The activity at 10 µM [40] was -20.5%, the GI50 [41] was 10.7 µM and the GI50 [42] was 5.25 µM. For the same compound, the activity at 10 µM [43] was -22.6%, the activity at 10 µM [44] was -54.5% and the GI50 [45] was 14.1 µM.
